The source made the active and inactive calls. No cut-off for these calls is given here.
Tests used:
[1] = Selectivity for gamma-secretase-mediated APP cleavage over gamma-secretase-mediated notch processing
[2] = (§1) Inhibition of gamma-secretase-mediated cleavage of human APP expressed in CHO cells assessed as reduction in amyloid beta42 production after 24 hrs by double sandwich ELISA; type: cell-based
[3] = Inhibition of gamma-secretase-mediated cleavage of human APP expressed in CHO cells assessed as reduction in amyloid beta40 production after 24 hrs by double sandwich ELISA; type: cell-based
[4] = target: Gamma-secretase (Homo sapiens) (UniProt Q96BI3+Q9NZ42+Q8WW43+P49768+Q92542+P49810); assay: (§2) Displacement of [3H](S)-5-chloro-N-(3-ethyl-1-hydroxypentan-2-yl)thiophene-2-sulfonamide from gamma secretase in human SH-SY5Y cells after 1 hr; type: cell-based
[5] = Inhibition of gamma-secretase-mediated mouse notch cleavage expressed in CHOK1 cells assessed as secreted alkaline phosphatase level after 48 hrs by chemiluminescence assay; type: cell-based; settings: CHO-K1, 48 h
CHO = assay: as §1; type: cell-based
[6] = Selectivity ratio of EC50 for gamma-secretase-mediated mouse notch cleavage to EC50 for gamma-secretase-mediated amyloid beta40 production
Gamma-secretase = assay: as §2; type: cell-based
[7] = Inhibition of gamma-secretase assessed as increase in beta-C-terminal fragment level after 24 hrs by double sandwich ELISA
[8] = Inhibition of gamma-secretase assessed as effect on APP level after 24 hrs by double sandwich ELISA

Row | Structure (SMILES) | Selectivity ratio [1] | EC50 [2] [nM] | EC50 [3] [nM] | Activity [4] | EC50 [5] [nM] | Activity (CHO) | Selectivity ratio [6] | IC50 (Gamma-secretase) [nM] | Activity [7] | Activity [8]
1 | C[C@H](c1ccc(F)cc1CCCC(=O)O)N(c1cc(F)ccc1F)S(=O)(=O)c1ccc(Cl)cc1 | 15 |  |  |  |  |  |  |  |  | 
2 | CCC(CC)[C@@H](CO)NS(=O)(=O)c1ccc(Cl)s1 [GSI-136] |  | 29 | 29 | Active |  |  |  |  |  | 
3 | CCC(CC)[C@H](NS(=O)(=O)c1ccc(Cl)s1)c1ccnn1Cc1ccc(O)cc1 |  |  | 92 |  | 1800 | Active | 20 | 154 | Active | Active

Source: ChEMBL document CHEMBL1154043, “Synthesis and structure-activity relationship of a novel series of heterocyclic sulfonamide gamma-secretase inhibitors” (Bioorg Med Chem, 2009)
